From the NIST ThermoML archive (doi:10.1021/je0302248)
Numbers after ± are expanded uncertainties.

Details: Liquid

Row | vapor or sublimation pressure (393.4 K) [kPa] | vapor or sublimation pressure (419.2 K) [kPa] | vapor or sublimation pressure (319.5 K) [kPa] | vapor or sublimation pressure (336.5 K) [kPa] | Compound
1 | 24 ± 7.2 | 53.32 ± 16 | – | – | CCO[Si](OCC)(OCC)OCC [tetraethoxysilane]
2 | – | – | 24 ± 7.2 | 53.32 ± 16 | CCO [ethanol]
